Reference: ChEMBL document CHEMBL1275532, “Potential for hepatitis C virus resistance to nitazoxanide or tizoxanide” (Antimicrob Agents Chemother, 2008)

Key:
[1] = Cytotoxicity against human TIZ-9 cell harboring HCV genotype 1b after 4 days by neutral red dye uptake assay; assay type: cell-based; settings: TIZ-9 cells harboring HCV genotype 1b
[2] = test system: Hepatitis C virus; experiment: Antiviral activity against HCV genotype 1b obtained from TIZ-9 cells infected in Huh7.5 cell assessed as viral-induced colony formation efficiency at 10 uM after 10 to 14 days in presence of 125 ug/ml G418; assay type: functional, Hepacivirus hominis
[3] = test system: Hepatitis C virus; experiment: Antiviral activity against HCV genotype 1b obtained from NTZ-11 cells infected in Huh7.5 cell assessed as viral-induced colony formation efficiency at 10 uM after 10 to 14 days in presence of 125 ug/ml G418; assay type: functional, Hepacivirus hominis
[4] = test system: Hepatitis C virus; experiment: Antiviral activity against HCV genotype 1b in RP7 replicon cell after 4 days by blot hybridization analysis; assay type: functional, organism-based, Hepacivirus hominis; settings: 96 h
[5] = Selectivity Index, ratio of CC50 for RP7 cell harboring HCV genotype 1b to EC50 for HCV genotype 1b in RP7 replicon cell
[6] = test system: Hepatitis C virus; experiment: Antiviral activity against HCV genotype 1b in TIZ-9 replicon cell after 4 days by blot hybridization analysis; assay type: functional, organism-based, Hepacivirus hominis; settings: TIZ-9, 96 h
[7] = test system: Hepatitis C virus; experiment: Antiviral activity against HCV genotype 1b obtained from RP7 cells infected in Huh7.5 cell assessed as viral-induced colony formation efficiency at 10 uM after 10 to 14 days in presence of 125 ug/ml G418; assay type: functional, Hepacivirus hominis
[8] = Selectivity Index, ratio of CC50 for NTZ-11 cell harboring HCV genotype 1b to EC50 for HCV genotype 1b in NTZ-11 replicon cell
[9] = test system: Hepatitis C virus; experiment: Antiviral activity against HCV genotype 1b in NTZ-11 replicon cell after 4 days by blot hybridization analysis; assay type: functional, organism-based, Hepacivirus hominis; settings: NTZ-11, 96 h
[10] = Cytotoxicity against human RP7 cell harboring HCV genotype 1b after 4 days by neutral red dye uptake assay; assay type: cell-based; settings: RP7 cells harboring HCV genotype 1b
[11] = Selectivity Index, ratio of CC50 for TIZ-9 cell harboring HCV genotype 1b to EC50 for HCV genotype 1b in TIZ-9 replicon cell
[12] = Cytotoxicity against human NTZ-11 cell harboring HCV genotype 1b after 4 days by neutral red dye uptake assay; assay type: cell-based; settings: NTZ-11 cells harboring HCV genotype 1b
[13] = test system: Hepatitis C virus; experiment: Antiviral activity against HCV genotype 1b obtained from TIZ-9 cells infected in Huh7.5 cell assessed as viral-induced colony formation efficiency at 1 uM after 10 to 14 days in presence of 125 ug/ml G418; assay type: functional, Hepacivirus hominis
[14] = test system: Hepatitis C virus; experiment: Antiviral activity against HCV genotype 1b obtained from NTZ-11 cells infected in Huh7.5 cell assessed as viral-induced colony formation efficiency at 1 uM after 10 to 14 days in presence of 125 ug/ml G418; assay type: functional, Hepacivirus hominis
[15] = test system: Hepatitis C virus; experiment: Antiviral activity against HCV genotype 1b obtained from RP7 cells infected in Huh7.5 cell assessed as viral-induced colony formation efficiency at 1 uM after 10 to 14 days in presence of 125 ug/ml G418; assay type: functional, Hepacivirus hominis
[16] = test system: Hepatitis C virus; experiment: Antiviral activity against HCV genotype 1b in replicon system; assay type: functional, organism-based, Hepacivirus hominis
[17] = test system: Hepatitis C virus; experiment: Antiviral activity against HCV genotype 1a in replicon system; assay type: functional, organism-based, Hepacivirus hominis; settings: subtype 1a

Row | Compound | CC50 at 96 h [1] [µM] | Activity [2] [%] | Activity [3] [%] | EC50 [4] [µM] | EC90 [4] [µM] | Ratio CC50/EC50 [5] | EC50 [6] [µM] | EC90 [6] [µM] | Activity [7] [%] | Ratio CC50/EC50 [8] | EC50 [9] [µM] | EC90 [9] [µM] | CC50 at 96 h [10] [µM] | Ratio CC50/EC50 [11] | CC50 at 96 h [12] [µM] | Activity [13] [%] | Activity [14] [%] | Activity [15] [%] | EC50 [16] [µM] | EC50 [17] [µM]
1 | C[C@@]1(O)[C@H](O)[C@@H](CO)O[C@H]1n1ccc(N)nc1=O | > 300 | 9 | 13 | 2 | 9 | >150 | 2.2 | 8.9 | 10 | >158 | 1.9 | 6.1 | > 300 | >136 | > 300 | – | – | – | – | –
2 | NC(=O)c1ncn([C@@H]2O[C@H](CO)[C@@H](O)[C@H]2O)n1 [RIBAVIRIN] | 95 | – | – | 69 | 122 | 1.1 | 52 | 123 | – | 1.4 | 47 | 107 | 77 | 1.8 | 66 | – | – | – | – | –
3 | O=C(Nc1ncc([N+](=O)[O-])s1)c1ccccc1O [TIZOXANIDE] | 92 | 0 | 0 | 0.15 | 0.94 | 167 | 2 | 35 | 0 | 67 | 1.1 | 18 | 25 | 46 | 74 | 12 | 8 | 7 | 0.15 | –
4 | CC(=O)Oc1ccccc1C(=O)Nc1ncc([N+](=O)[O-])s1 [NITAZOXANIDE] | 97 | – | – | 0.16 | 1.2 | 238 | 1.5 | 26 | – | 57 | 1.2 | 17 | 38 | 65 | 68 | – | – | – | – | 0.13
